Results on 13 compounds are retold here after patent US20140018384A1, “QUINOLINONE DERIVATIVES FOR USE IN THE TREATMENT OF AN AUTOIMMUNE DISEASE AND/OR AN INFLAMMATORY DISEASE” (PRONOXIS AB, priority 2011, published 2014).

Like-named read-outs stand apart in the source and are kept apart here.

For the assay, the system named is PLB-985 cells. As to the kind of experiment: ROS production (isoluminol/HRP luminescence) in PLB-985 cells, Biological Example 1. The class given is cell-based. The procedure:
To cells (HL-60 or PLB-985) in HBSS medium was added compound (25 or 50 μM), isoluminol and Horse Radish Peroxidase, fraction II. Luminescence was measured for 10-30 minutes and the area under the […] curve was divided by that from a control experiment to give the activity expressed as fold change.
Each assay indicated below was performed at a different site, at a different time, by different personnel and/or using different cell lines, concentrations and controls. The cell line, concentration of example compound and control used in respect of each assay were as indicated below. The values obtained from these different setups (each using an otherwise identical assay) are given as Activity A, B, C, D or E in Table 5 below. The values are expressed as fold increase of NADPH activity in the presence of the relevant of compound (as indicated below) compared to the relevant control (as indicated below).
Activity A: HL-60 cells; 50 μM compound vs. blank Activity B: PLB-985 cells; 25 μM compound vs. blank Activity C, D and E: PLB-985 cells; 25 μM compound vs. DMSO

Setting [1] is: 25 μM compound vs. DMSO, setup E, read-out: Activity E (fold increase of NADPH activity compared to control).
The mark [2] stands for this setting: 25 μM compound vs. DMSO, setup C, read-out: Activity C (fold increase of NADPH activity compared to control).
Setting [3] is: 25 μM compound vs. blank, read-out: Activity B (fold increase of NADPH activity compared to control).
Where [4] appears, read: 25 μM compound vs. DMSO, setup D, read-out: Activity D (fold increase of NADPH activity compared to control).

Consider `COc1ccc2c(c1)c(=O)c(C(=O)c1ccc(F)cc1)cn2CC(=O)Nc1ccc(C(F)(F)F)cc1` [Example 38, 2-[3-(4-Fluorobenzoyl)-6-methoxy-4-oxo-1-quinolinyl]-N-(4-trifluoromethylphenyl)acetamide], for which, under setting [1], the fold induction at 25 µM was 7.
On to `COc1ccc2c(n1)c(=O)c(C(=O)c1ccc(F)cc1)cn2CC(=O)Nc1ccc(C)cc1` [Example 39, 2-[3-(4-Fluorobenzoyl)-6-methoxy-4-oxo-1,5-naphthyridin-1-yl]-N-p-tolylacetamide], for which the fold induction at 25 µM under setting [1] was determined as 76.2.
On to `CCOc1ccc(NC(=O)Cn2cc(C(=O)c3ccc(CC)cc3)c(=O)c3cc4c(cc32)OCO4)cc1` [Example 71, N-(4-Ethoxyphenyl)-2-[3-(4-ethylbenzoyl)-6,7-methylenedioxy-4-oxo-1-quinolinyl]acetamide], for which the fold induction at 25 µM by setting is: under setting [2], 25.1; under setting [3], 43.6.
For `COc1ccc(NC(=O)Cn2cc(C(=O)c3ccc(F)cc3)c(=O)c3cc(OC)c(OC)cc32)cc1` [Example 105, N-p-Anisyl-2-[6,7-dimethoxy-3-(4-fluorobenzoyl)-4-oxo-1-quinolinyl]acetamide], under setting [4], the fold induction at 25 µM came out at 2.
As for `O=C(Cn1cc(C(=O)c2ccc3ccccc3c2)c(=O)c2nc(O)ccc21)Nc1ccc(Cl)cc1` [Example 22, N-(4-Chlorophenyl)-2-[6-hydroxy-3-(2-naphthoyl)-4-oxo-(1,5-naphthyridin-1-yl)]-acetamide], the fold induction at 25 µM under setting [1] was determined as 20.2.
On to `O=C(Cn1cc(C(=O)c2ccccc2)c(=O)c2cc3c(cc21)OCO3)Nc1ccc(Cl)cc1` [Example 48, 2-(3-Benzoyl-6,7-methylenedioxy-4-oxo-1-quinolinyl)-N-(4-chlorophenyl)acetamide], for which the fold induction at 25 µM came to 42.5 under setting [2] and 81.4 under setting [3].
With `O=C(Cn1cc(C(=O)c2cccc(F)c2)c(=O)c2cc3c(cc21)OCO3)Nc1ccc(Cl)cc1` [Example 32, N-(4-Chlorophenyl)-2-[3-(3-fluorobenzoyl)-6,7-methylenedioxy-4-oxo-1-quinolinyl]acetamide], the fold induction at 25 µM under setting [2] stood at 47.8.
Consider `COc1ccc(NC(=O)Cn2cc(C(=O)c3ccccc3)c(=O)c3cc(OC)c(OC)cc32)cc1` [Example 103, N-p-Anisyl-2-(3-benzoyl-6,7-dimethoxy-4-oxo-1-quinolinyl)acetamide], for which, under setting [4], the fold induction at 25 µM came to 3.7.
The same measure, in the same setting: as for `COc1ccc2c(=O)c(C(=O)c3ccc4ccccc4c3)cn(CC(=O)Nc3ccc(Cl)cc3)c2c1` [Example 18, N-(4-Chlorophenyl)-2-[7-methoxy-3-(2-naphthoyl)-4-oxo-1-quinolinyl]acetamide], the figure is 12.6.
With `CCc1ccc(NC(=O)Cn2cc(S(=O)(=O)c3ccccc3)c(=O)c3cc4c(cc32)OCO4)cc1` [Example 82, 2-(3-Benzenesulfonyl-6,7-methylenedioxy-4-oxo-1-quinolinyl)-N-(4-ethylphenyl)acetamide], the fold induction at 25 µM under setting [2] amounted to 5.9.
With `O=C(Cn1cc(C(=O)c2ccc3ccccc3c2)c(=O)c2cc3c(cc21)OCO3)Nc1ccc(C(F)(F)F)cc1` [Example 11, 2-[6,7-Methylenedioxy-3-(2-naphthoyl)-4-oxo-1-quinolinyl]-N-(4-trifluoromethylphenyl)acetamide], the fold induction at 25 µM under setting [1] stood at 8.8.
In the case of `O=C(Cn1cc(C(=O)c2ccc(Cl)cc2)c(=O)c2cc3c(cc21)OCO3)Nc1ccc(Cl)cc1` [Example 51, 2-[3-(4-Chlorobenzoyl)-6,7-methylenedioxy-4-oxo-1-quinolinyl]-N-(4-chlorophenyl)acetamide], the fold induction at 25 µM runs as follows: under setting [2], 66.7; under setting [3], 174.
The matching figures for `COc1cc(NC(=O)Cn2cc(C(=O)c3ccc(Cl)cc3)c(=O)c3cc4c(cc32)OCO4)cc(OC)c1` [Example 56, 2-[3-(4-Chlorobenzoyl)-6,7-methylenedioxy-4-oxo-1-quinolinyl]-N-(3,5-dimethoxyphenyl)acetamide]: 4.4 and 6.4.
